Measurements as given in US5880099A, “Inositol polyphosphates and methods of using same” (The Regents of the University of California, priority 1997, dated 1999).
“Also recorded” adds a separate entry of the source.

Columns and labels:
Assay type in all cases: cell-based, human
[1] = tested on: colonic epithelial T84 cells (calcium-mediated chloride ion secretion); test: Inhibition of calcium-mediated chloride ion secretion (Table I summary)
Description: The invention provides compounds that are agonists or antagonists of inositol polyphosphates. Inositol polyphosphate derivatives can function as inositol polyphosphate agonists and antagonists. The effects of compounds of the invention on Ins(3,4,5,6)P4 - and PtdInsP3 -mediated inhibition of calcium-mediated chloride ion secretion are described in the Examples and summarized in Table I.
(§1) Enantiomerically pure 1,2-Bt2 -Ins(3,4,5,6)P4 /AM was synthesized to determine if 1,2-Bt2 -Ins(3,4,5,6)P4 /AM mediates the uncoupling of chloride ion secretion from intracellular calcium concentrations. T84 cells (passages 18-48) were maintained as described previously (Weymer, et al., J. Clin. Invest. 76:1828 (1985)), which is incorporated herein by reference. After 7-10 days of incubation on SNAP-WELLS (Corning Costar; Cambridge, Mass.), monolayers had formed tight junctions. Cell monolayers were preincubated with 100, 200 or 400 μM Bt2 -Ins(3,4,5,6)P4 /AM for 30 min prior to mounting. After an additional 30 min, 0.1 mM histamine was added and chloride ion secretion was monitored. Chloride ion secretion was measured as short circuit current (Isc) across T84 monolayers grown to confluence and mounted in Ussing chambers equipped with voltage clamps (Physiologic Instruments; San Diego, Calif.). Data was acquired and analyzed using "Acquire and Analyze" software (Physiologic Instruments).

[2] = tested on: T84 cells (histamine-stimulated chloride ion secretion); test: Histamine-stimulated chloride ion secretion (short circuit current) in T84 monolayers; settings: for effect on histamine-stimulated / calcium-mediated chloride ion secretion (in words): T84 cells; for activity at 200 µM: 200 μM compound alone
Method: as §1, with “T84 cells (passages 18-48) were maintained as described previously (Weymer, et al., J. Clin. Invest. 76:1828 (1985)), which is incorporated herein by reference.” left out
(§2) Initial studies were directed towards understanding structural determinants of Ins(3,4,5,6)P4 responsible for the inhibitory effect on calcium-mediated chloride ion secretion. A series of cell permeable inositol polyphosphate derivatives were synthesized. These derivatives contained either one or two non-hydrolyzable chemical groups on the 1, 2 or 3 position. T84 monolayers were preincubated for 30 minutes with 200 μM of 2-Bt-1-Me-Ins(3,4,5,6)P4 /AM, Me2 -Ins(3,4,5,6)P4 /AM, Me2 -Ins(1,4,5,6)P4 /AM or 2-Bt-3-Me-Ins(1,4,5,6)P4 /AM.
(§3) Following the incubation, cells were mounted in Ussing chambers. Calcium-mediated chloride ion secretion was stimulated with histamine (10^-4 M). Control values were the response to histamine in coincubated monolayers. Data are represented as mean peak ΔIsc ±SEM, expressed as % control for 8 to 10 experiments. Significant differences were identified using the Student's two-tailed t test.

[3] = tested on: T84 cells (carbachol-stimulated chloride ion secretion); test: Carbachol-stimulated (calcium-mediated) chloride ion secretion in T84 cells; settings: for effect on carbachol-stimulated / calcium-mediated chloride ion secretion (in words): T84 cells, preincubation
Method: The cell permeable derivative D,L-Bt3 -Ins(1,3,4)P3 /AM was synthesized. Colonic epithelial T84 cells were preincubated for 30 min with 400 μM D,L-Bt3 -Ins(1,3,4)P3 /AM prior to mounting in Ussing chambers and measuring ΔIsc. At 10 min, carbachol (10^-4 M) was added to transiently stimulate calcium-mediated chloride ion secretion. Data were the average of 8 experiments with p<0.04, unpaired, two-sided student's t-test. […]

[4] = tested on: T84 cells (Ins(3,4,5,6)P4 inhibition of histamine-stimulated chloride ion secretion); test: Reversal of Bt2 -Ins(3,4,5,6)P4 /AM inhibition of histamine-stimulated chloride ion secretion in T84 cells; settings: for Peak ΔIsc (% Control) after histamine (100 μM): 200 μM antagonist + 200 μM Bt2 Ins (3,4,5,6)P4 /AM, mean ± SEM, 30 min; for reversal of the inhibitory effect of Bt2 -Ins(3,4,5,6)P4 /AM / Ins(3,4,5,6)P4-mediated inhibition (in words): T84 cells, histamine-stimulated
Method: as §2, §3
T84 cells were preincubated with cell permeant inositol polyphosphates as described above to determine if any of the inositol polyphosphate derivatives function as antagonists of Ins(3,4,5,6)P4 inhibition of calcium-mediated chloride ion secretion. Following histamine stimulation, short circuit current was measured. […] The % control shown in FIG. 3 represents ΔIsc over peak Isc in control monolayers stimulated with histamine. However, […]

[5] = tested on: T84 colonic epithelial cells (carbachol-mediated inhibition of chloride ion secretion); test: Reversal of carbachol-mediated inhibition of thapsigargin-stimulated chloride ion secretion in T84 cells; settings: carbachol 10^-4 M, thapsigargin 1 μM
Method: T84 colonic epithelial cells were treated with D,L-1,2-cyclohexylidene-Ins(3,4,5,6)P4 /AM, 1-Bu-2-Bt-Ins(3,4,5,6)P4 /AM, Bu2 -Ins(3,4,5,6)P4 /AM, 3-Bt-2-Bu-Ins(1,4,5,6)P4 /AM, Bu2 -Ins(1,4,5,6)P4 /AM, 1-Bt-2-Bu-Ins(3,4,5,6)P4 /AM or 3-Bu-2-Bt-Ins(1,4,5,6)P4 /AM and the short circuit current was measured.
One set of cells was preincubated for 30 min with an inositol polyphosphate derivative. The other two sets of cells were preincubated with vehicle, alone. Measurement of Isc was initiated at time 0. At 5 min, carbachol (10^-4 M) was added to one set of cells preincubated with vehicle alone (designated "Carbachol" in FIG. 5) and to the set of cells preincubated with inositol polyphosphate derivatives (designated "Carbachol+D,L-1,2-Cyclohexylidene-Ins(3,4,5,6)P4 /AM" in FIG. 5A). At 30 min, 1 μM thapsigargin was added. Data were collected for n=4 to 6 experiments.

[6] = Homo sapiens, T84, 0.5 h, mean ± SEM, read-out: Peak ΔIsc (% Control) after histamine (100 μM)

Compound	Mechanism and Inositol Polyphosphate Pathway Affected ([1]; pathway: Ins (3,4,5,6)P4)	activity at 200 µM [2, 6]	Peak ΔIsc (% Control) after histamine (100 μM) [4]	reversal of the inhibitory effect of Bt2 -Ins(3,4,5,6)P4 /AM / Ins(3,4,5,6)P4-mediated inhibition (in words) [4]	further results
CCCC(=O)O[C@@H]1[C@@H](OC(=O)CCC)[C@H](OP(=O)(OCOC(C)=O)OCOC(C)=O)[C@@H](OP(=O)(OCOC(C)=O)OCOC(C)=O)[C@H](OP(=O)(OCOC(C)=O)OCOC(C)=O)[C@H]1OP(=O)(OCOC(C)=O)OCOC(C)=O (relative stereo) [D,L-Bt2 -scyllo-Ins(3,4,5,6)P4 /AM, D,L-1,2-O-butyryl-scyllo-inositol 3,4,5,6-TKphosphate oct (acetoxymethyl) ester]	Agonist of				effect on histamine-stimulated / calcium-mediated chloride ion secretion (in words) [2]: inhibit calcium-mediated chloride secretion; effect on histamine-stimulated / calcium-mediated chloride ion secretion (in words) ([2]; listed as scyllo derivative of the cell permeable Bt2 -Ins(3,4,5,6)P4 /AM): at least as effective an inhibitor as the myo derivative
di-palmitoyl-D,L-O-butyryl-phosphatidyl inositol 3,4,5-trisphosphate heptakis (acetoxymethyl) ester [diC16 -Bt-PtdInsP3 /AM]					Mechanism and Inositol Polyphosphate Pathway Affected ([1]; pathway: PtdInsP3): Agonist of; effect on carbachol-stimulated / calcium-mediated chloride ion secretion (in words) [3]: inhibited calcium-mediated chloride ion secretion; inhibition of calcium-mediated chloride ion secretion ([3]; pretreatment of T84 cells, FIG. 7): up to 74%
CC(=O)OCOP(=O)(OCOC(C)=O)O[C@H]1[C@H](OP(=O)(OCOC(C)=O)OCOC(C)=O)[C@@H](OP(=O)(OCOC(C)=O)OCOC(C)=O)[C@@H](Cl)[C@@H](Cl)[C@@H]1OP(=O)(OCOC(C)=O)OCOC(C)=O (relative stereo) [D,L-1,2-Cl2-dideoxy-Ins(3,4,5,6)P4 /AM, D,L-1,2-dichloro-1,2-dideoxy-myo-inositol 3,4,5,6-TKphosphate oct (acetoxymethyl) ester]					activity at 400 µM ([2]; Homo sapiens, T84, 0.5 h, 400 μM compound alone, mean ± SEM, read-out: Peak ΔIsc (% Control) after histamine (100 μM)): 89.4 ± 7.8%; effect on histamine-stimulated / calcium-mediated chloride ion secretion (in words) [2]: slight inhibitory effect on chloride ion secretion
CCCC(=O)O[C@H]1[C@@H](OC)[C@H](OP(=O)(OCOC(C)=O)OCOC(C)=O)[C@@H](OP(=O)(OCOC(C)=O)OCOC(C)=O)[C@H](OP(=O)(OCOC(C)=O)OCOC(C)=O)[C@H]1OP(=O)(OCOC(C)=O)OCOC(C)=O [2-Bt-1-Me-Ins(3,4,5,6)P4 /AM, 2-O-butyryl-1-O-methyl-myo-inositol 3,4,5,6-TKphosphate oct (acetoxymethyl) ester]	Antagonist of	87.3 ± 6.6%	117.7 ± 10.6 % Control	enhanced chloride ion secretion; also recorded: reversed Ins(3,4,5,6)P4 -mediated inhibition of chloride ion secretion; also recorded: reversed the inhibitory effect of Bt2 -Ins(3,4,5,6)P4 /AM	
CCCC(=O)O[C@@H]1[C@H](OC)[C@@H](OP(=O)(OCOC(C)=O)OCOC(C)=O)[C@H](OP(=O)(OCOC(C)=O)OCOC(C)=O)[C@@H](OP(=O)(OCOC(C)=O)OCOC(C)=O)[C@@H]1OP(=O)(OCOC(C)=O)OCOC(C)=O [2-Bt-3-Me-Ins(1,4,5,6)P4 /AM, 2-O-butyryl-3-O-methyl-myo-inositol 3,4,5,6-TKphosphate oct (acetoxymethyl) ester]		106 ± 3.7%	69.7 ± 5.04 % Control	had essentially no effect	
CO[C@@H]1[C@H](OC)[C@@H](OP(=O)(OCOC(C)=O)OCOC(C)=O)[C@H](OP(=O)(OCOC(C)=O)OCOC(C)=O)[C@@H](OP(=O)(OCOC(C)=O)OCOC(C)=O)[C@@H]1OP(=O)(OCOC(C)=O)OCOC(C)=O [Me2 -Ins(1,4,5,6)P4 /AM, 2,3-di-O-methyl-myo-inositol 3,4,5,6-TKphosphate oct (acetoxymethyl) ester]		120 ± 10.6%	68.4 ± 7.3 % Control	had essentially no effect	
CCCCO[C@@H]1[C@H](OCCCC)[C@@H](OP(=O)(OCOC(C)=O)OCOC(C)=O)[C@H](OP(=O)(OCOC(C)=O)OCOC(C)=O)[C@@H](OP(=O)(OCOC(C)=O)OCOC(C)=O)[C@@H]1OP(=O)(OCOC(C)=O)OCOC(C)=O [Bu2 -Ins(1,4,5,6)P4 /AM, D-2,3-Di-O-butyl-myo-inositol 1,4,5,6-tetrakisphosphate octakis(acetozymethyl)ester]					reversal of carbachol-mediated inhibition of chloride ion secretion (in words) [5]: enhanced chloride ion secretion; reversal of carbachol-mediated inhibition of chloride ion secretion (in words) ([5]; listed as 2,3-Bu2 -Ins(1,4,5,6)P4 /AM): did not reverse carbachol-mediated inhibition of chloride ion secretion stimulated by thapsigargin
CO[C@@H]1[C@H](OC)[C@H](OP(=O)(OCOC(C)=O)OCOC(C)=O)[C@@H](OP(=O)(OCOC(C)=O)OCOC(C)=O)[C@H](OP(=O)(OCOC(C)=O)OCOC(C)=O)[C@H]1OP(=O)(OCOC(C)=O)OCOC(C)=O [Me2 -Ins(3,4,5,6)P4 /AM, 1,2-di-O-methyl-myo-inositol 3,4,5,6-Tkphosphate oct (acetoxymethyl) ester]	Antagonist of	104 ± 11.1%	107.13 ± 10.2 % Control	reversed the inhibitory effect of Bt2 -Ins(3,4,5,6)P4 /AM	reversal of the inhibitory effect of Bt2 -Ins(3,4,5,6)P4 /AM / Ins(3,4,5,6)P4-mediated inhibition (in words) ([4]; listed as Me2 -Ins-(3,4,5,6)P4 /AM): reversed Ins(3,4,5,6)P4 -mediated inhibition of chloride ion secretion
phosphatidylinositol trisphosphate [PtdInsP3, reference compound]					effect on carbachol-stimulated / calcium-mediated chloride ion secretion (in words) [3]: No inhibition of calcium-mediated chloride ion secretion
